Measurements reported in patent publication EP0203736A1, “Antiviral compounds” (THE WELLCOME FOUNDATION LIMITED, priority 1985, dated 1986).

Test system: herpes simplex
Experiment: In vivo potency against herpes simplex infection in intra-cerebrally infected mice (survival times, MRST)
Set-up: species or system CD 1 mice
Settings: for MRST: mean reciprocal survival time; for MRST / Survival Times / survivors: 50 mg/kg twice daily for 4.5 days; for MRST / Survival Times: recorded over 14 days; for Survival Times / survivors: 10 animals; for Survival Times: figures = number of animals that died (on the day in parentheses); for survivors: 14 days, 1 mouse died within 24 hours of infection
Method: The compounds of Examples 1 and 2 were tested in vivo to determine their potency in vivo against herpes simplex infections. The compounds were tested in comparison with the 6-deoxy analogue of the compound of Example 1, namely 9-(3,4-dihydroxybutyI) guanine (DHBG). The following is description of the testing.
The compounds were tested in CD 1 mice infected with herpes simplex ICI cell culture stock having a titre of 1 x 10^5 plaque forming units (pfu)/ml and administered to the mice in a dose of 0.025ml by the intra-cerebral route.
The test compounds were prepared as aqueous suspensions or solutions, each compound being administered at a dose of 50 mg/kg in a volume of 0.1 ml, by either the oral or sub-cutaneous (s.c.) route, to a treatment group of animals. Each group contained 10 animals for each compound and for each route of administration.
Treatment of the animals commenced 2-3 hours after infection and continued twice daily for 4.5 days.
A group of 13 animals which were infected but untreated served as controls.
Survival times for the test animals were recorded over 14 days and expressed as mean reciprocol survival times (MRST).
The results shown in the following table were obtained in which the figures in the column headed "Survival Times" indicate the number of animals that died on the day indicated in parentheses.

SMILES | MRST (oral) | MRST (s.c.) | Survival Times (oral) | Survival Times (s.c.) | survivors (oral) | survivors (s.c.) | antiviral effect in vivo against HSV (summary statement, particularly in comparison with DHBG)
Nc1nc2c(ncn2CCC(O)CO)c(=O)[nH]1 (stereo not drawn) [DHBG, 9-(3,4-dihydroxybutyI) guanine, reference compound] | 0.18 | 0.155 | 1(4.5), 3(5), 5(6), 1(7) | 1(5), 3(6), 5(7), 1(7.5) |  |  | 
Nc1ncc2ncn(CCC(O)CO)c2n1 (stereo not drawn) [Example 1, 2-Amino-9-(3,4-dihydroxybutyl)-9H-purine] | 0.154 | 0.160 | 1(5), 4(6), 3(7), 1(7.5), 1(9) | 7(6), 3(7) |  |  | 
Nc1ncc2ncn(COCC(O)CO)c2n1 (stereo not drawn) [Example 2] | 0.059 | 0.054 | 1(6), 1(7), 1(8), 1(10.5) | 3(8), 1(9) | 5 | 5 | potent antiviral effect
